The record followed here is patent publication EP4007561B1, “PREVENTION AND REDUCTION OF CORNIFICATION DISORDERS AND RELATED COSMETIC AGENTS” (Merck Patent GmbH, priority 2019, dated 2021).

Type in all cases: cell-based, human
One assay relates to skin explants. Put plainly: Protein oxidation (carbonylation) by differential in-gel electrophoresis proteomics, unidentified spots and overall spot pattern. The following applies: for Average normalized volume (oxidation level): UV-A + Ectoine 0.2%, UV-A 365 nm, 480J/cm2, 40 min. The protocol:
To assess and quantify protein oxidation (carbonylation) by differential in-gel electrophoresis proteomics approach evidencing differentially oxidized protein spots upon UV-A (365 nm) irradiation on skin explants in the presence or absence of ectoine (0,2%) (source Merck KGaA, Darmstadt, Germany).
During the study human explants are irradiated under UVA (LED source; sources and chamber manufactured for custom needs by UWAVE;France, peak at 365nm at a 480J/cm2 dose during 40 min). A solution of N-acetylcysteine (Reference A7250, Sigma-Aldrich) is used as positive control of protection. Just after irradiation, explants are snap-frozen and proteins extracted for analyses.
Protein extraction from explants is performed using a commercial kit (Total Protein Extraction Kit, Merck KGaA) protocol for skin explants. Extracted proteins are quantified by the Bradford method and split into equal amounts for analyses. The samples are analyzed for carbonylated proteins after they are labeled with fluorescent probes functionalized to selectively react with carbonyl groups. The fluorescent labeling of carbonyls is obtained by the reaction with amine-N-oxyl functionalized fluorophore (custom synthetized) and formation of a stable covalent bond.
Thus, the samples are labeled with two different fluorescent dyes characterized by different excitation and emission wavelength peaks: CF®555 (Source :Biotium) is a red fluorescent dye spectrally similar to Cy3® and Alexa Fluor® 555 (λex547nm/λem572nm) and CF®647 (Source: Biotium) CF®647is a far-red fluorescent dye spectrally similar to Cy®5 and Alexa Fluor® 647 (λex639nm/λem668nm). This approach allows to load two distinct labeled samples in the same bi-dimensional electrophoresis gel and to analyze them independently.
Moreover, 50 µg of proteins of each sample are pooled and labeled a third fluorescent probe CF®488 (Source: Biotium) (λex483nm/λem508nm). CF®488 is a green fluorescent dye spectrally similar to Alexa Fluor® 488. CF®488 is and used as Internal Standard (IS) for inter-gel normalization. After specific fluorescent labeling, carbonylated proteins are separated by bi-dimensional electrophoresis and the fluorescence images are obtained for each specifically labeled sample.
The first dimension of protein separation (isoelectric focusing) is performed using gel-strips with nonlinear pH 3 to 11 while the second step of electrophoresis separation is conducted by SDS-PAGE using 4%-20% w/v gradient polyacrylamide gels. The digital acquisition of gel images is performed by using the «Ettan DIGE imager» system (GE Healthcare). Data treatment is performed with the software «Progenesis SameSpots» (Nonlinear Dynamics, UK).
Carbonylated proteins are presented as superposed images of two independent fluorescent signals (in green or red) and the coincident proteins with equivalent intensity result in yellow spots by superposition of the two dye colors used for their labeling (superposition of green and red colors). The carbonylated proteins that are present in a different level in the two samples on gel are visualized as red or green spots depending by the experimental group as independent labeling of each sample.
More than 200 spots are detected per sample, with an increase in number and intensity in the samples of the irradiated group (UV-A). These spots are localized between 37 kDa and 75 kDa. The fluorescence signal of each spot is normalized over the internal standard spot signal for each gel. The alignment of spots from different gels and the analysis of variance of their carbonylation levels in different samples and in different groups are performed by using the software Progenesis Samespots.

In a further assay the test system is Filaggrin. The experiment in a line: Fluorescence imaging (immunostaining) of protein expression on skin explants ex vivo. Conditions: ectoine 0.2% w/v, 24 hours prior to UV-A irradiation (365 nm, 480J/cm^2, 40 minutes); Figure 2. On the procedure:
(§1) To evidence changes at the expression level of a selected pool of proteins on skin explants (ex vivo), treated or not with ectoine 0.2% (source Merck KGaA. Darmstadt, Germany) and exposed or not to UV-A irradiation: At day 0 (D0), the skin explants from a donor (phototype III, ref. EXP001100F022) are kept alive in calcium-free DMEM (Dulbecco's modified Eagle medium), with 10% FCS (Fetal calf serum), at 37°C and humid atmosphere, supplemented with 5% CO2. On day 1 (D1), ectoine 0.2% w/v) is obtained by dilution in H2O. The experimental groups are incubated for 24 hours with the active prior to irradiation.
(§2) On day 2 (D2), a stress induced by irradiation with UV-A (LED source, peak at 365 nm at a 480J/cm^2 during 40 minutes) is applied to the explants.
(§3) Skin explants are previously treated or not with ectoine and irradiated or not with UV-A, cryo-preserved in OCT (an embedding resin (Shandon Cryomatrix; Thermo Scientific, Reference 6769006)), flash-frozen in isopetan/liquid nitrogen and stored at -80 °C.
(§4) Tissue sections of 5 µm are cut by using a cryotome, air-dried at room temperature (RT) for 15 minutes and fixed with a mix of 95% ethanol/5% acetic acid for 5 minutes. Fixed tissues are then saturated with 5% BSA (bovine serum albumin) in PBS (Phosphate Buffered Saline; 1X, pH 7.4) at RT. […]

Another assay deals with LAMP2A. Described as above. The following applies: ectoine 0.2% w/v; basal conditions (without UV-A); Figure 3. The protocol: as §1, §2, §3, §4

Each structure is given as a SMILES string. Where “and” joins values, the source holds several entries; their conditions need not be identical. Equal entries are not always repeated.

As for `CC1=N[C@H](C(=O)O)CCN1` [Ectoine, (S)-1,4,5,6-tetrahydro-2-methyl-4-pyrimidincarboxylic acid], the “Average normalized volume (oxidation level)” value is “→ 1.129” in the assay with skin explants (Spot 100 (protein not identified), n=4); “→ 1.062” in the assay on skin explants (Spot 203 (protein not identified), n=4); “→ 1.433” in the assay with skin explants (Spot 230 (protein not identified), n=4). For the same compound, the “level of oxidation of protein spots in the absence of irradiation” value with skin explants (basal conditions, no UV-A, spots different from those protected from UV-A stress (except spot 100)) is “decreases the level of oxidation of ten protein spots”. Besides, the “protein carbonylation after ectoine treatment, spots 100, 230, 203” value in the assay with skin explants (ectoine 0.2%, UV-A irradiation, n=4) was “carbonylation is not reduced”. For the same compound, in the assay on skin explants (ectoine 0.2%, of 8 spots increased by UV-A, spots 186, 133, 184, 185, 206, n=4), the “protection of protein spots from UV-A induced oxidation (carbonylation)” value is “five spots are detected as protected and 5 proteins exhibit reduced protein carbonylation and prevents protein carbonylation significantly”. Also, the Filaggrin expression level result in the assay on Filaggrin is “prevents this decrease of Filaggrin”. Besides, in the assay with LAMP2A, the LAMP2A expression result is recorded as “increases LAMP2A expression”.
